Test results published in article PMC12587161, “Chidamide (a Histone Deacetylase Inhibitor) Plus Abiraterone in Metastatic Castration‐Resistant Prostate Cancer (mCRPC): A Phase Ib Trial” (MedComm, 2025).
Entries after “also recorded” stand apart in the source; their conditions may differ. Like-named read-outs stand apart in the source and are kept apart here.

Assays:
[1] = tested on: C4-2 cells; test: Cell viability by CCK-8; assay type: cell-based; conditions: DHT 10 nM, chidamide 0.5 µM and/or enzalutamide 20 µM, 96 h
Description: (§1) FIGURE 5 Chidamide inhibited AR pathway and CRPC progression and in vitro. (A) Effect of chidamide and enzalutamide on cell viability. C4‐2 cells were treated with DHT (10 nM), chidamide (0.5 µM), and/or enzalutamide (20 µM) for 96 h. Cell viability was measured by CCK‐8. […] DHT (10 nM) served as control.
C4‐2 cell line was provided by Prof. Yonghong Li (Sun Yat‐sen University Cancer Center) and validated by short tandem repeat (STR). C4‐2 cells were grown in RPMI 1640 containing 10% FBS.

[2] = tested on: AR downstream genes (PSA, TMPRSS2, SLC45A3) in C4-2 cells; test: RT-PCR of AR downstream genes; assay type: cell-based; conditions: chidamide 0.5 µM
Description: as §1
Total cellular RNA was isolated using EZ‐press RNA Purification Kit (EZBioscience, USA) according to the manufacturer's protocol. For first‐strand cDNA synthesis, 5 µg of total RNA was reverse‐transcribed using the PrimeScript RT Master Mix (Perfect Real Time, TaKaRa Bio, Kusatsu, Japan) followed by quantitative PCR (qPCR) with 2 × Taq Master Mix (Vazyme Biotech Co., Ltd, China) according to the manufacturer's instructions. Real‐time PCR analyses were conducted using the Biorad CFX96 system and the appropriate primers to estimate the mRNA expression. The primer sequences were as follows: for PSA, forward 5′‐[…]‐3′ and reverse 5′‐[…]‐3′; for TMPRSS2, forward 5′‐[…]‐3′ and reverse 5′‐[…]‐3′; for SLC45A3, forward 5′‐[…]‐3′ and reverse 5′‐[…]‐3′; for GAPDH, forward 5′‐[…]‐3′ and reverse 5′‐[…]‐3′.

[3] = tested on: patients with mCRPC; assay type: in vivo
Description: Chidamide was tested in three dose groups (20 mg, 25 mg, 30 mg). The starting dose was 20 mg per dose, administered twice a week, with a treatment cycle lasting 4 weeks. Dosing occurred on fixed days of each week, with two doses administered on the same day each week for the duration of the 4‐week cycle. Three participants are enrolled in each dosage group. If no DLT occurred during the first treatment cycle, the dose was escalated and three patients were enrolled at the next dose level. However, if one DLT was observed, three additional patients were added at the same dose level for further assessment. If no new DLTs occur, the study continues to the next dose level. If two or more of the six patients at a given dose level developed a DLT, further dose escalation was halted, and the prior dose level was determined to be the MTD. Abiraterone was combined with the second administration of chidamide on Day 4 of the first cycle. The observation for DLT was in the period of first cycle of treatment. […]

[4] = Chidamide pharmacokinetics in patients (compartmental modeling, Phoenix Winnonlin 7.0); assay type: in vivo; conditions: male, human, plasma, mCRPC patients, after first administration; for AUC(0-t): read-out: AUC0–24 h, Mean; for clearance: read-out: CL, Mean (converted); for Vd: read-out: Vss, Mean; for half-life: read-out: t 1/2, Mean (converted)
Description: From patients administered with different doses of chidamide, blood samples were collected in a sodium heparin tube at the time points of 2, 4, 8, 12, and 24 h after the completion of the first administration of chidamide (Day 1) in treatment cycle 1 and cycle 2. PK parameters were estimated from chidamide concentrations measured using […] samples taken at specified time points postdosing, and were analyzed by Phoenix Winnonlin 7.0.

[5] = tested on: chemotherapy-naïve mCRPC patients; parameters: method as in PMID 19608618; conditions: cited from earlier work

With Nc1cc(F)ccc1NC(=O)c1ccc(CNC(=O)/C=C/c2cccnc2)cc1 [chidamide, Chidamide] the Cell viability [1] was “effectively inhibits the cell viability”, the “Relative mRNA expression of PSA” value [2] was “significantly downregulated; also recorded: decreased” and the “Relative mRNA expression of SLC45A3” value [2] was “significantly downregulated; also recorded: decreased”. For the same molecule, the “Relative mRNA expression of TMPRSS2” value [2] was “significantly downregulated; also recorded: decreased”, the “Chidamide-related SAEs” value ([3]; all 18 patients) was “No chidamide‐related SAEs were observed” and the “Dose-limited toxicity (DLT)” value ([3]; dose escalation 20, 25, 30 mg chidamide, first cycle) was “none of the patients experienced a DLT”. It also gave a Cmax ([4]; 20 mg (N = 4)) of 79.2 ng/mL, an AUC(0-t) ([4]; 20 mg (N = 4)) of 1330 ng·h/mL and a clearance ([4]; 20 mg (N = 4)) of 170 mL/min. The Vd ([4]; 20 mg (N = 4)) was 207 L, the half-life ([4]; 20 mg (N = 4)) was 13.9 h and the Cmax ([4]; 25 mg (N = 11)) was 91.2 ng/mL. It also gave an AUC(0-t) ([4]; 25 mg (N = 11)) of 1160 ng·h/mL, a clearance ([4]; 25 mg (N = 11)) of 260 mL/min and a Vd ([4]; 25 mg (N = 11)) of 326 L. For the same molecule, the half-life ([4]; 25 mg (N = 11)) was 13.6 h, the Cmax ([4]; 30 mg (N = 3)) was 296 ng/mL and the AUC(0-t) ([4]; 30 mg (N = 3)) was 2860 ng·h/mL. It also gave a clearance ([4]; 30 mg (N = 3)) of 188 mL/min, a Vd ([4]; 30 mg (N = 3)) of 132 L and a half-life ([4]; 30 mg (N = 3)) of 8.06 h.

In the case of C/C=C1\NC(=O)[C@H]2CSSCC/C=C/[C@H](CC(=O)N[C@H](C(C)C)C(=O)N2)OC(=O)[C@H](C(C)C)NC1=O [romidepsin], the “Time to progression (TTP)” value [5] is given as 1.8 months.
